Assay [1] relates to FADD−/− Jurkat cells. The experiment in a line: TNF-induced programmed cell necrosis inhibition, Cell Titer-Glo viability. To be noted: Homo sapiens, Jurkat. In kind it is cell-based. A digest of the protocol:
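FADD-deficient Jurkat cells (2.5×10^5/mL) were pretreated 1 h at 37 °C with compound plus Smac (50 nM as added), then stimulated with TNFα (50 ng/mL as added) for 14 h at 37 °C, 5% CO2. Viability was measured as ATP by CellTiter-Glo luminescence, with unstimulated DMSO wells as 100%. EC50 values were derived.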
(In general: In ATP-based viability assays light output follows the ATP content of the culture.)

Assay [2] has as its system L929 cells. The assay is described as above. In kind it is cell-based, mouse. To be noted: Mus musculus, read-out: EC50 inhibitory activity on programmed cell necrosis. A digest of the protocol:
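EC50 values come from CellTiter-Glo luminescence (cellular ATP), normalised to unstimulated DMSO wells as 100% viability. Mouse L929 fibroblasts had 1 h compound-plus-Smac pretreatment at 37 °C (Smac added as 500 nM solution), followed by 14 h TNFα challenge (added as 500 ng/mL solution).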

The subject of assay [3] is RIPK1 (S161E). Put plainly: Effect of RIPK1 S161E mutation on compound activity (S161E MEFs western blot and cell death with TNFα and 5z7). In kind it is cell-based, mouse. Particulars: FIG. 6. On the procedure: The biological test protocol used in this experiment was to test the effect of serine mutation at position 161 of RIPK1 to glutamic acid on the activity of the compound. The experiment was verified by two aspects. On the one hand, the mouse-derived MEFs cells in which RIPK1 (S161E) was put back after knocking out RIPK1 were treated with the compound of the present invention, and the phosphorylation state of RIPK1 was detected by western-blot; on the other hand, whether the compounds of the present invention have inhibitory effect on RIPK1-dependent apoptosis in the above-mentioned S161E cells was detected.
1. S161E MEFs cells were digested, and then diluted to 1.5×10^5/ml, and the cells were seeded into 6-well plates with 2 ml per well. The plate was placed in a cell incubator (37° C., 5% CO2) for 12 hours. 0.4 μL of compound 4-8 (50 mM in DMSO) or 0.4 μL of Nec-1s (50 μM in DMSO) was added to the wells respectively, 0.4 μL of DMSO was added to the control group. […] The BCA protein quantification kit was used to detect the protein content of each group, and PIPA lysis buffer was used to adjust the protein amount to make the final volume of 100 μL. […] The cells were incubated at room temperature for 30 min, and the luminescence value was detected to measure the level of intracellular ATP. […]

The mark [4] stands for this setting: 14 h, TNFa + SM164, read-out: EC50 inhibitory activity on programmed cell necrosis.
The mark [5] stands for this setting: TNFa, read-out: EC50 inhibitory activity on programmed cell necrosis.
Setting [6] is: L929, 14 h, L929 cells (mouse), TNFa + SM164.

Where two headings read alike, the source gives them in different places. Bounds are passed on as bounds.

The source of these data is patent US12662473B2, “Inhibitors for programmed cell necrosis and preparation method therefor and use thereof” (SHANGHAI INSTITUTE OF ORGANIC CHEMISTRY, CHINESE ACADEMY OF …, priority 2019, dated 2026).

Usually EC50 stands for the midpoint of the concentration-response curve. As to `Cc1ccc(C2CCCN2C(=O)C(C)(C)Oc2ccc(Cl)cc2)cc1` (centres unmarked) [QY-4-8], the EC50 in assay [1] (setting [4]) was found to be 568 nM; in assay [1] (setting [5]), 91 nM; in assay [2] (setting [6]), 139 nM; in assay [2] (L929, L929 cells (mouse), TNFa), 50 nM. In assay [3], the “inhibition of programmed cell necrosis after mutation of serine 161 of RIPK1 to glutamic acid” value was “can still inhibit the programmed cells necrosis”.

Consider `C#Cc1ccc(OC(C)(C)C(=O)N2CCCC2c2ccc(C)cc2)cc1` (centres unmarked) [QY-14-68], for which the EC50 in assay [1] (setting [4]) was found to be 180 nM; in assay [1] (setting [5]), 17.2 nM; in assay [2] (setting [6]), 102 nM; in assay [2] (L929, L929 cells (mouse), TNFa), 21 nM.

With `Cc1ccc(C2CCCN2C(=O)C(C)(C)Oc2ccc(C#CC(C)(C)O)cc2)cc1` (centres unmarked) [QY-15-11], the EC50 in assay [1] (setting [4]) is greater than 10000 nM; in assay [1] (setting [5]), greater than 10000 nM; in assay [2] (setting [6]) it was greater than 10000 nM; in assay [2] (L929, L929 cells (mouse), TNFa), 2840 nM.

For the compound `Cc1ccc(C2CCCN2C(=O)C(C)(C)Oc2ccc(C#Cc3cccnc3)cc2)cc1` (centres unmarked) [QY-15-12], the concentration for a half-maximal effect (EC50) in assay [1] (setting [4]) is greater than 10000 nM; in assay [1] (setting [5]) it was greater than 10000 nM; in assay [2] (setting [6]) it was greater than 10000 nM; in assay [2] (L929, L929 cells (mouse), TNFa) it was 5160 nM.

As to `Cc1ccc(C2CCCN2C(=O)C(C)(C)Oc2ccc(C#CC3CCNCC3)cc2)cc1` (centres unmarked) [QY-15-31], the 50% effective concentration (EC50) in assay [1] (setting [4]) is greater than 10000 nM; in assay [1] (setting [5]), 818 nM; in assay [2] (setting [6]), greater than 10000 nM; in assay [2] (L929, L929 cells (mouse), TNFa), 82.4 nM.

For `[2H]C([2H])([2H])c1ccc(C2CCCN2C(=O)C(C)(C)Oc2ccc(Cl)cc2F)cc1` (centres unmarked) [XHJ-3-22], the EC50 in assay [1] (setting [4]) was 1460 nM; in assay [2] (setting [6]), 302 nM; in assay [2] (L929, L929 cells (mouse), TNFa) it was 40 nM.

On to `CC(C)(Oc1ccc(Cl)cc1F)C(=O)N1N=CCC1c1ccccc1` (centres unmarked) [ZSQ13-56, 2-(4-Chloro-2-fluorophenoxy)-2-methyl-1-(5-phenyl-4,5-dihydro-1H-pyrazol-1-yl)propan-1-one], for which the EC50 was 424 nM in assay [1] (setting [4]); 49 nM in assay [1] (setting [5]); 201 nM in assay [2] (setting [6]); 28 nM in assay [2] (L929, L929 cells (mouse), TNFa).

In the case of `CC(C)(Oc1ccc(Cl)cc1F)C(=O)N1N=CCC1c1ccc(F)cc1` (centres unmarked) [ZSQ13-57], the 50% effective concentration (EC50) in assay [1] (setting [4]) turned out to be 370 nM; in assay [1] (setting [5]) it was 26 nM; in assay [2] (setting [6]), 112 nM; in assay [2] (L929, L929 cells (mouse), TNFa), 10 nM.
